Experimental data from patent US8735398B2 (Bristol-Myers Squibb Company, priority 2009, dated 2014).
Read-outs that look alike come from different tables or passages of the source.

System: HCV 1b genotype
Test: HCV replicon assay (HCV-neo replicon cells, wild-type)
Type: cell-based, Hepatitis C virus
Details: HCV 1b genotype replicon
Outline: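 HCV-neo replicon cells (wild-type) and replicon cells carrying NS5A resistance substitutions were treated with compounds; assay per O'Boyle et al. 2005, with luciferase-reporter read-out variants also used.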

[1] = Hepatitis C virus, class symbol, read-out: EC50 Range against HCV 1b

| SMILES | EC50 [1] [µM] | further results |
| --- | --- | --- |
| O=C(Nc1ccc(-c2cnc(-c3ccc(NC(=O)[C@@H]4CCCN4C(=O)c4ccc[nH]4)cc3)o2)cc1)[C@@H]1CCCN1C(=O)c1ccc[nH]1 [XY-33, (2S,2′S)-N,N′-(1,3-oxazole-2,5-diyldi-4,1-phenylene)bis(1-(1H-pyrrol-2-ylcarbonyl)-2-pyrrolidinecarboxamide)] |  | EC50 (Hepatitis C virus, class symbols, read-out: EC50 Range against HCV 1b): 1 to 10 µM |
| O=C(Nc1ccc(-c2cnc(-c3ccc(NC(=O)[C@@H]4CCCN4C(=O)CC4CC4)cc3)o2)cc1)C1CCCN1C(=O)CC1CC1 (stereo partly drawn) [Example D-20, (2′S)-N,N′-(1,3-oxazole-2,5-diyldi-4,1-phenylene)bis(1-(cyclopropylacetyl)-2-pyrrolidinecarboxamide)] | 0.1 to 0.999 |  |
| CC(=O)N1CC=C[C@H]1C(=O)Nc1ccc(-c2cc(-c3ccc(NC(=O)[C@@H]4C=CCN4C(C)=O)cc3)[nH]n2)cc1 [OL-30, (2S,2′S)-N,N′-(1H-pyrazole-3,5-diyldi-4,1-phenylene)bis(1-acetyl-2,5-dihydro-1H-pyrrole-2-carboxamide)] | 1 to 10 |  |
| O=C(Nc1ccc(-c2cnc(-c3ccc(NC(=O)[C@@H]4CCCN4C(=O)C(O)c4ccccn4)cc3)o2)cc1)[C@@H]1CCCN1C(=O)C(O)c1ccccn1 (stereo partly drawn) [Example D-14, (2S,2′S)-N,N′-(1,3-oxazole-2,5-diyldi-4,1-phenylene)bis(1-(hydroxy(2-pyridinyl)acetyl)-2-pyrrolidinecarboxamide)] | 0.1 to 0.999 |  |
| CCCC[C@H](NC(=O)Cc1ccccc1)C(=O)Nc1ccc(-c2cnc(-c3ccc(NC(=O)[C@H](CCCC)NC(=O)Cc4ccccc4)cc3)o2)cc1 [JG-17, (2S,2′S)-N,N′-(4,4′-(oxazole-2,5-diyl)bis(4,1-phenylene))bis(2-(2-phenylacetamido)hexanamide)] |  | EC50 (class symbol, read-out: EC50 Range against HCV 1b): 0.1 to 0.999 µM |
| CC(=O)N1CCC[C@H]1C(=O)Nc1ccc(-c2nc(-c3ccc(NC(=O)[C@@H]4C=CCN4C(=O)[C@@H]4CCCO4)cc3)cs2)cc1 [Example D-52, (2S)-N-[4-[2-[4-[[[(2S)-1-acetyl-2-pyrrolidinyl]carbonyl]amino]phenyl]-4-thiazolyl]phenyl]-2,5-dihydro-1-[[(2S)-tetrahydro-2-furanyl]carbonyl]-1H-pyrrole-2-carboxamide] | 1 to 10 |  |
| CO[C@H]1C[C@@H](C(=O)Nc2ccc(-c3cnc(-c4ccc(NC(=O)[C@@H]5C[C@H](OC)CN5C(=O)[C@H](O)c5ccccc5)cc4)o3)cc2)N(C(=O)[C@H](O)c2ccccc2)C1 [OL-58, (2S,4S,2′S,4′S)-N,N′-(1,3-oxazole-2,5-diyldi-4,1-phenylene)bis(1-((2R)-2-hydroxy-2-phenylacetyl)-4-methoxy-2-pyrrolidinecarboxamide)] | < 0.00457 |  |
| CC(=O)N1CCC[C@H]1C(=O)Nc1ccc(-c2nc(-c3ccc(NC(=O)[C@@H]4C=CCN4C(=O)Cc4ccccc4)cc3)cs2)cc1 [Example D-49, (2S)-N-[4-[2-[4-[[[(2S)-1-acetyl-2-pyrrolidinyl]carbonyl]amino]phenyl]-4-thiazolyl]phenyl]-2,5-dihydro-1-(phenylacetyl)-1H-pyrrole-2-carboxamide] | 1 to 10 |  |
| CCOc1ccccc1C(=O)N1CCC[C@H]1C(=O)Nc1ccc(-c2nnc(-c3ccc(NC(=O)[C@@H]4CCCN4C(=O)c4ccccc4OCC)cc3)o2)cc1 [RK-8, (2S,2′S)-N,N′-(1,3,4-oxadiazole-2,5-diyldi-4,1-phenylene)bis(1-(2-ethoxybenzoyl)-2-pyrrolidinecarboxamide)] | 1 to 10 | EC50 (Hepatitis C virus, read-out: EC50 1b): 1.85 µM |
| O=C(Nc1ccc(-c2nncn2-c2ccc(NC(=O)[C@@H]3CCCN3C(=O)Cc3ccccc3)cc2)cc1)[C@@H]1CCCN1C(=O)Cc1ccccc1 [OL-15, (2S,2′S)-N,N′-(4H-1,2,4-triazole-3,4-diyldi-4,1-phenylene)bis[1-(phenylacetyl)-2-pyrrolidinecarboxamide]] | 1 to 10 |  |
